Among the data in patent US4663329A, “Thienopyridinone derivatives and anti-bacterial compositions containing them” (Sanofi, priority 1984, dated 1987) are MIC values, retold here.

Values after ≈ are worked out from the molar mass of the structure shown. Where two headings read alike, the source gives them in different places. Bounds are passed on as bounds.

By MIC is commonly meant the smallest concentration in the dilution series that meets the test's criterion for growth inhibition.

Type in all cases: cell-based
Experiment [1] has as its system Providencia stuartii 5158. Kind of experiment: In vitro antibacterial activity, MIC, Providencia stuartii 5158. As to the method:
(§1) Tests carried out in vitro in accordance with the experimental procedure described hereunder have provided evidence of the antibacterial activity in question.
(§2) For this purpose, the M.I.C. were determined i.e. the minimal inhibiting concentrations of the compound under study acting on the growth of the bacteria at 37° C.
(§3) The serial dilutions method was used utilizing a MUELLER HINTON gelose medium at pH=7.4 and a bacterial inoculum of 10^4 units forming colonies. This inoculum was applied to the gelose by means of a multiple sowing device.
(§4) A scale of concentrations ranging from 100 to 0.05 μg/ml of compound to be studied was used starting from mother solutions titrating 1000 μg/ml, all the subsequent dilutions being effected in distilled water.

Experiment [2] deals with Proteus vulgaris RL 99 bis. Kind of experiment: In vitro antibacterial activity, MIC, Proteus vulgaris RL 99 bis. The conditions noted are these: Proteus vulgaris, RL99BIS. Here is the method: as §1, §2, §3, §4
Experiment [3] concerns Klebsiella pneumoniae ATCC 10031. Kind of experiment: In vitro antibacterial activity, MIC, Klebsiella pneumoniae ATCC 10031. The conditions noted are these: ATCC10031. Here is the method: as §1, §2, §3, §4
Experiment [4] relates to Proteus morganii 1510. As to the kind of experiment: In vitro antibacterial activity, MIC, Proteus morganii 1510. The conditions noted are these: Morganella morganii, 1510. As to the method: as §1, §2, §3, §4
Experiment [5] has as its system Citrobacter freundii GN 346. Kind of experiment: In vitro antibacterial activity, MIC, Citrobacter freundii GN 346. The conditions noted are these: GN346. Here is the method: as §1, §2, §3, §4
Experiment [6] deals with Acinetobacter calcoaceticus C 1733. Kind of experiment: In vitro antibacterial activity, MIC, Acinetobacter calcoaceticus C 1733. The following applies: C1733, 37° C., pH=7.4, inoculum 10^4, read-out: MIC. As to the method: as §1, §2, §3, §4
Experiment [7] has as its system Escherichia coli 54127 IP. As to the kind of experiment: In vitro antibacterial activity, MIC, Escherichia coli 54127 IP. The conditions noted are these: Escherichia coli, 54127IP. As to the method:
as §1, §2, §3, §4

In experiment [8] the test system is Staphylococcus aureus 53154 IP. Kind of experiment: In vitro antibacterial activity, MIC, Staphylococcus aureus 53154 IP. The conditions noted are these: Staphylococcus aureus 53154 IP; 37° C., pH=7.4, inoculum 10^4; read-out: MIC. Here is the method:
as §1, §2, §3, §4

Experiment [9] deals with Serratia liquefaciens 376. As to the kind of experiment: In vitro antibacterial activity, MIC, Serratia liquefaciens 376. The conditions noted are these: 37° C., pH=7.4, inoculum 10^4, read-out: MIC. As to the method: as §1, §2, §3, §4
For experiment [10], the system named is Streptococcus faecalis 5855 IP. Kind of experiment: In vitro antibacterial activity, MIC, Streptococcus faecalis 5855 IP. The following applies: Enterococcus faecalis, 37° C., pH=7.4, inoculum 10^4, read-out: MIC. As to the method:
as §1, §2, §3, §4

The test system of experiment [11] is Salmonella typhi ATCC 6539. Kind of experiment: In vitro antibacterial activity, MIC, Salmonella typhi ATCC 6539. The conditions noted are these: Salmonella enterica. As to the method:
as §1, §2, §3, §4

The subject of experiment [12] is Proteus mirabilis ATCC 21100. Kind of experiment: In vitro antibacterial activity, MIC, Proteus mirabilis ATCC 21100. The conditions noted are these: ATCC21100. Here is the method: as §1, §2, §3, §4
Experiment [13] deals with Enterobacter cloacae P 99. As to the kind of experiment: In vitro antibacterial activity, MIC, Enterobacter cloacae P 99. The following applies: Enterobacter cloacae, P99. As to the method: as §1, §2, §3, §4
Experiment [14] deals with Shigella sonnei R 018. Kind of experiment: In vitro antibacterial activity, MIC, Shigella sonnei R 018. The conditions noted are these: R018, 37° C., pH=7.4, inoculum 10^4. Here is the method:
as §1, §2, §3, §4

In experiment [15] the test system is Klebsiella pneumoniae R 30. As to the kind of experiment: In vitro antibacterial activity, MIC, Klebsiella pneumoniae R 30. The conditions noted are these: R30. Here is the method: as §1, §2, §3, §4
Experiment [16] deals with Pseudomonas aeruginosa 8203. As to the kind of experiment: In vitro antibacterial activity, MIC, Pseudomonas aeruginosa 8203. The conditions noted are these: 37° C., pH=7.4, inoculum 10^4, read-out: MIC. Here is the method:
as §1, §2, §3, §4

Experiment [17] concerns Enterobacter hafniae RO 46. Kind of experiment: In vitro antibacterial activity, MIC, Enterobacter hafniae RO 46. The following applies: Hafnia alvei, RO46. Here is the method:
as §1, §2, §3, §4

In experiment [18] the test system is Bordetella bronchiseptica ATCC 4617. Kind of experiment: In vitro antibacterial activity, MIC, Bordetella bronchiseptica ATCC 4617. The following applies: ATCC4617, 37° C., pH=7.4, inoculum 10^4, read-out: MIC. As to the method:
as §1, §2, §3, §4

Experiment [19] has as its system Escherichia coli SOL RL 90. As to the kind of experiment: In vitro antibacterial activity, MIC, Escherichia coli SOL RL 90. The conditions noted are these: SOLRL90. Here is the method: as §1, §2, §3, §4
Experiment [20] concerns Salmonella typhimurium A 222 IP. As to the kind of experiment: In vitro antibacterial activity, MIC, Salmonella typhimurium A 222 IP. The following applies: Salmonella enterica. As to the method: as §1, §2, §3, §4
[21] abbreviates: Providencia stuartii 5158, 37° C., pH=7.4, inoculum 10^4, read-out: MIC.
[22] abbreviates: Klebsiella pneumoniae ATCC 10031, 37° C., pH=7.4, inoculum 10^4, read-out: MIC.
Setting [23] is: Citrobacter freundii GN 346, 37° C., pH=7.4, inoculum 10^4, read-out: MIC.
The mark [24] stands for this setting: Proteus mirabilis ATCC 21100, 37° C., pH=7.4, inoculum 10^4, read-out: MIC.
[25] abbreviates: Klebsiella pneumoniae R 30, 37° C., pH=7.4, inoculum 10^4, read-out: MIC.
[26] abbreviates: Escherichia coli SOL RL 90, 37° C., pH=7.4, inoculum 10^4, read-out: MIC.
[27] abbreviates: Salmonella typhimurium A 222 IP, 37° C., pH=7.4, inoculum 10^4, read-out: MIC.

Regarding `CCn1cc(C(=O)O)c(=O)c2cc(C=NO)sc21` [Compound A, 4,7-Dihydro-7-ethyl-2-hydroxyiminomethyl-4-oxo-thieno[2,3-b]pyridine-5-carboxylic acid], the minimum inhibitory concentration (MIC) in [1] (Providencia stuartii, 5158) was 6.25 µg/mL (≈ 23.5 µM); in [2], 1.56 µg/mL (≈ 5.86 µM); in experiment [3] (Klebsiella pneumoniae) it was 1.56 µg/mL (≈ 5.86 µM); in experiment [4] it was 1.56 µg/mL (≈ 5.86 µM); in experiment [5] (Citrobacter freundii), 6.25 µg/mL (≈ 23.5 µM); in experiment [6] it was above 100 µg/mL. Also, the MIC in [7] is 3.12 µg/mL (≈ 11.7 µM); in experiment [8] it was 25 µg/mL (≈ 93.9 µM); in experiment [9], 100 µg/mL (≈ 376 µM); in experiment [10], above 100 µg/mL; in experiment [11] it was 6.25 µg/mL (≈ 23.5 µM); in experiment [12] (Proteus mirabilis) it was 1.56 µg/mL (≈ 5.86 µM). In addition, the MIC in [13] is 6.25 µg/mL (≈ 23.5 µM); in experiment [14], 1.56 µg/mL (≈ 5.86 µM); in [15] (Klebsiella pneumoniae), 6.25 µg/mL (≈ 23.5 µM); in experiment [16], 50 µg/mL (≈ 188 µM); in experiment [17], 1.56 µg/mL (≈ 5.86 µM); in experiment [18] it was above 100 µg/mL. The MIC in [19] (Escherichia coli) and in experiment [20] (TYPHIMURIUM) was 6.25 µg/mL (≈ 23.5 µM) throughout.

Consider `CCn1cc(C(=O)O)c(=O)c2cc([N+](=O)[O-])sc21` [Compound Y, 4,7-dihydro-7-ethyl-2-nitro-4-oxo-thieno[2,3-b]pyridine-5-carboxylic acid, reference compound], for which the minimal inhibitory concentration (MIC) in experiment [1] (setting [21]) is 12.5 µg/mL (≈ 46.6 µM); in experiment [2], 3.12 µg/mL (≈ 11.6 µM); in experiment [3] (setting [22]) it was 50 µg/mL (≈ 186 µM); in experiment [4], 3.12 µg/mL (≈ 11.6 µM); in experiment [5] (setting [23]), 12.5 µg/mL (≈ 46.6 µM); in experiment [6] it was above 100 µg/mL. For the same compound, the minimum inhibitory concentration (MIC) is 3.12 µg/mL (≈ 11.6 µM) in [7]; above 100 µg/mL in experiment [8]; above 100 µg/mL in [9]; above 100 µg/mL in experiment [10]; 25 µg/mL (≈ 93.2 µM) in experiment [11]; 12.5 µg/mL (≈ 46.6 µM) in [12] (setting [24]). Moreover, the MIC is 50 µg/mL (≈ 186 µM) in experiment [13]; 3.12 µg/mL (≈ 11.6 µM) in [14]; 25 µg/mL (≈ 93.2 µM) in [15] (setting [25]); above 100 µg/mL in [16]; 3.12 µg/mL (≈ 11.6 µM) in experiment [17]; above 100 µg/mL in experiment [18]. For the same compound, the MIC in experiment [19] (setting [26]) and in [20] (setting [27]) was 6.25 µg/mL (≈ 23.3 µM) each time.

For the compound `CCn1cc(C(=O)O)c(=O)c2cc(C=Nc3ccccc3)sc21` [Compound J, 4,7-Dihydro-7-ethyl-2-N-phenyl-iminomethyl-4-oxo-thieno[2,3-b]pyridine-5-carboxylic acid], the MIC in experiment [1] (setting [21]) was 12.5 µg/mL (≈ 38.3 µM); in [2], 3.12 µg/mL (≈ 9.56 µM); in experiment [3] (setting [22]), 50 µg/mL (≈ 153 µM); in [4], 3.12 µg/mL (≈ 9.56 µM); in experiment [5] (setting [23]) it was 12.5 µg/mL (≈ 38.3 µM); in experiment [6] it was above 100 µg/mL. Moreover, the MIC in [7] is 3.12 µg/mL (≈ 9.56 µM); in [8] it was above 100 µg/mL; in experiment [9] it was above 100 µg/mL; in experiment [10], above 100 µg/mL; in experiment [11], 25 µg/mL (≈ 76.6 µM); in [12] (setting [24]) it was 12.5 µg/mL (≈ 38.3 µM). Further, the MIC in [13] was 50 µg/mL (≈ 153 µM); in experiment [14] it was 3.12 µg/mL (≈ 9.56 µM); in experiment [15] (setting [25]), 25 µg/mL (≈ 76.6 µM); in experiment [16], above 100 µg/mL; in experiment [17], 3.12 µg/mL (≈ 9.56 µM); in [18], above 100 µg/mL. The MIC in experiment [19] (setting [26]) and in experiment [20] (setting [27]) was 6.25 µg/mL (≈ 19.1 µM) each time.
